Data published in patent US10292991B2, “Small molecule therapeutic compounds that reduce the incidence of intracerebral hemorrhage and brain microhemorrhages” (St. Michaels Hospital, priority 2016, dated 2019).

Tests used:
[1] = system: β-Pix MO-induced hemorrhage in zebrafish; experiment: βPix morpholino-induced hemorrhage in zebrafish, rescue by drugs; type: in vivo, zebrafish (Danio rerio)
Method: Morpholino oligonucleotides (MOs) were custom-synthesized by Gene Tools (Carvalis, Oreg.); their sequences are shown in Table 1.
(§1) Danieau buffer (58 mM NaCl, 0.7 mM KCl, 0.4 mM MgSO4, 0.6 mM Ca(NO3)2, 5.0 mM HEPES, pH 7.6) was used to dilute the MO solutions to 0.2 mM final concentration. Individual wells were placed on a 1.0% agarose plate, in which the embryos were positioned. Afterwards, the MO solution was injected through the cell yolk into embryos of 1 to 4 cell-stage. The injected quantities varied from 0.5 to 15 ng.
bbhm292 zebrafish mutant has a hypomorphic mutation in βPix, resulting in ICH/BMH and hydrocephalus. The MO is βPixexon6-MO which blocks splicing of exon 6 and results in premature protein termination. […] Higher doses of βPixexon6-MO (up to 8 ng) result in a lack of blood circulation, and therefore no ICH/BMH was detected. Injection of 8 ng results in complete missplicing of βPix and therefore a null phenotype, whereas lower doses retain some normally spliced βPix. The βPixexon6-MO sequence is 5′-[…]-3′ [SEQ ID NO: 1]. 3Pixexon6-MO was injected into the embryos at the 1-2 cell stage, and compounds were added 12 hpf.
(§2) The first three morpholino pairs were good for the efficacy study. Efficacy assays were performed using Artemether (ARM, Sigma) and artemesunate (ART, GMP). […] Treating these morphants with the drugs rescued the ICH phenotype.

VE-Cadherin (Cdh5) mRNA = experiment: qRT-PCR of VE-cadherin mRNA in atorvastatin-treated zebrafish larvae; type: in vivo, zebrafish (Danio rerio); details: 1 μmol/L atorvastatin plus 500 nmol/L drug, n=3
Method: (§3) qRT-PCR was used to assess relative expression of selected genes (an average of two biological trial and three technical replicates and each trial is a pool of 60 larvae/treatment), using β-actin as the housekeeping gene control. 3 dpf, Tg(Flk:GFP; Gata:dsRed) zebrafish larvae were used for RNA extraction and cDNA synthesis. Atorvastatin and drug treatment were performed as previously mentioned in drug screening. Total RNA was extracted from these larvae (a pool of 50-60 larvae/treatment) using the RNeasy extraction kit (Qiagen, Mississauga, ON, CAN) and treated with DNase. The concentration of total RNA was determined spectrophotometrically at 260/280 nm using a NanoDrop™ spectrophotometer. First-strand cDNA was synthesized from 1 μg of total RNA using random hexamer primers.
(§4) In each case, forward primer is shown on the top and reverse primer on the bottom.
(§5) PCR was carried out in a 20 μl total volume and included 1×PCR buffer, 1.25 mM MgCl2, 0.25 mM dNTP, 1 U Taq polymerase, 0.5 μmol/L forward, and reverse primers and 1 μl cDNA.

CCM3 (Ccm3) mRNA = experiment: qRT-PCR of CCM3 mRNA in atorvastatin-treated zebrafish larvae; type: in vivo, zebrafish (Danio rerio); details: 1 μmol/L atorvastatin plus 500 nmol/L drug, n=3
Method: as §3, §4, §5

zebrafish larvae = experiment: Toxicity assay in zebrafish larvae (heart beat, blood flow, cardiac edema); type: in vivo, zebrafish (Danio rerio)
Method: The embryos were collected and distributed into a 96-well plate in 0.5% DMSO, similar to efficacy assays. […] Heart beat and blood flow were ranked from 3 (normal heart beat or blood flow) to 0 (no heart beat or blood flow). Cardiac edema was ranked from 0 (normal heart without edema) to −3 (severe cardiac edema). […] The ratio of TC50/EC50 was calculated in each case.
Heart beat and blood flow were ranked from 3 (normal heart beat or blood flow) to 0 (no heart beat or blood flow). Cardiac edema was ranked from 0 (normal heart without edema) to −3 (severe cardiac edema). […] Data is expressed as mean±SEM from 3 experiments.

[2] = system: Hmgcrb - splice morpholino-induced hemorrhage in zebrafish; experiment: Hmgcrb morpholino-induced hemorrhage in zebrafish, rescue by drugs; type: in vivo, zebrafish (Danio rerio); details: Danio rerio; Table 6
Method: as §1, §2

[3] = system: Pak2a - exon8 morpholino-induced hemorrhage in zebrafish; experiment: Pak2a morpholino-induced hemorrhage in zebrafish, rescue by drugs; type: in vivo, zebrafish (Danio rerio); details: Danio rerio; Table 6
Method: as §1
Another MO was designed to block the splice-donor sites after exon 8 in pak2a. Pak2a is the gene mutated in the rhdmi149 zebrafish mutant that develops ICH/BMH.
Efficacy assays were performed using Artemether (ARM, Sigma) and artemesunate (ART, GMP).

[4] = Spectrophotometer analysis of blood hemoglobin concentration (Drabkin's method); type: in vivo, C57BL/6 mice; details: 25 mg/kg or 100 mg/kg for 3 days, n=4; no statistical difference between groups
Method: Drabkin's reagent (Sigma Aldrich) was used for calorimetric quantification of hemoglobin concentration at 540 nm. C57BL/6 mice were randomly assigned to three groups (each n=4): Control, Low-dose ARM, and High-dose ARM. For ARM groups, three days of 25 mg/kg/day and 100 mg/kg/day ARM were administered for low and high dose, respectively. Blood from saphenous vein were collected at day 4 and tested for hemoglobin concentration using UV 3600 Shimadzu spectrophotometer. A standard curve was generated using a known standard solution of cyanmethemoglobin, and blood concentrations of Hb was compared to the standard curve.
To assess possible anemia effect from ARM treatment as some previous studies speculated, blood samples were tested for hemoglobin concentration after ARM treatment. Blood hemoglobin concentration was assessed using Drabkins' method. Spectrophotometer data was compared to a standard curve from standard cyanmethemoglobin concentrations. The control group received no drug. The Treatment Dose group received 3 days injection of low dose ARM (25 mg/kg), 4× Treatment Dose group received 3 days injection of high dose ARM (100 mg/kg).

[5] = drug from Sequoia Research (UK)
[6] = drug from Sigma, 3 dpf larvae, drug added 24 hpf

CO[C@H]1O[C@@H]2O[C@@]3(C)CC[C@H]4[C@H](C)CC[C@@H]([C@H]1C)[C@@]24OO3 [Artemether]
EC50 ([1]; Danio rerio, Table 6, read-out: EC50 to rescue hemorrhage induced by βPix - exon6 morpholino): 51.6 ± 11.7 nM
Efficacy on β-Pix MO Hemorrhage ([1]; inhibition of β-Pix MO-induced hemorrhage): +++++ (One + sign represents 20% inhibition on 1 μmol/L ATV or β-Pix MO-induced hemorrhage.)
VE-cadherin transcription level (qRT-PCR) (VE-Cadherin (Cdh5) mRNA): upregulation
CCM3 transcription level (qRT-PCR) (CCM3 (Ccm3) mRNA): returned to normal
TC50 (Blood flow) (zebrafish larvae; [5]): 746.3 nM
TC50/EC50 ratio (Blood flow) (zebrafish larvae; [5]): (9.2)
TC50/EC50 ratio (Edema) (zebrafish larvae; [5]): (6.5e+010)
TC50/EC50 ratio (Heart beat) (zebrafish larvae; [5]): (1.3e+011)
TC50/EC50 ratio (Blood flow) (zebrafish larvae; drug from Sigma): (39.5)
TC50/EC50 ratio (Edema) (zebrafish larvae; drug from Sigma): (87.1)
TC50/EC50 ratio (Heart beat) (zebrafish larvae; drug from Sigma): (94.3)
TC50 (Blood flow) (zebrafish larvae; [6]): 975.3 nM
TC50 (Edema) (zebrafish larvae; [6]): 19564 nM
TC50 (Heart beat) (zebrafish larvae; [6]): 2328 nM
Safety in zebrafish embryos (EC50 compared with TC50) (zebrafish larvae; result in words): EC50 is much lower than TC50
EC50 [2]: 62.5 ± 8.3 nM
EC50 [3]: 39.1 ± 8 nM
Anemia (blood hemoglobin concentration) [4]: did not cause anemia
